Experimental data from patent US11090323B2, “Pharmaceutical composition, methods for treating and uses thereof” (Boehringer Ingelheim International GmbH, priority 2013, dated 2021).

How the values were obtained:
the diabetic = settings: metformin on its own; cited from earlier work
[1] = system: patients with T2DM and RI; assay: Phase III trial of empagliflozin as add-on to existing therapy in patients with T2DM and renal impairment; format: in vivo, human
Protocol: A Phase III trial investigated the efficacy and safety of empagliflozin (EMPA) as add-on to existing therapy for 52 weeks in patients with T2DM and RI. Patients with mild RI (eGFR [MDRD equation] ≥60 to <90 mL/min/1.73 m^2; n=290; mean age 62.6 years; mean BMI 31.5 kg/m^2) received EMPA 10 or 25 mg qd or placebo (PBO). Patients with moderate RI (eGFR ≥30 to <60 mL/min/1.73 m^2; n=374; mean age 64.9 years; mean BMI 30.2 kg/m^2) received EMPA 25 mg qd or PBO. The primary endpoint was change from baseline in HbA1c at week 24. Exploratory endpoints included changes from baseline in fasting plasma glucose (FPG), weight and blood pressure (BP) at week 24 (FIG. 1).

renal glucose absorption = assay: PK-PD nonlinear mixed-effects model of empagliflozin exposure vs urinary glucose excretion / renal glucose threshold; format: in vivo, human
Text: Empagliflozin, a selective and potent SGLT2 inhibitor, reduces renal glucose reabsorption by lowering the renal threshold for glucose (RTG) leading to increased urinary glucose excretion (UGE) and decreased plasma glucose (PG) in patients with type 2 diabetes mellitus (T2DM). This analysis aimed to quantify the impact of empagliflozin on RTG by characterizing the relationship between empagliflozin exposure and UGE in patients with T2DM using nonlinear mixed-effects modeling.
A pharmacokinetic (PK)-pharmacodynamic (PD) model was developed using UGE, PG, PK and estimated glomerular filtration rate (eGFR) data from three Phase I/II trials (N=223; placebo, empagliflozin 1 to 100 mg once daily [QD]). The model assumed that when PG>RTG, UGE increased with increasing PG and eGFR; and when PG≤RTG slight glucose leakage into urine occurred (estimated as fraction reabsorbed [FRAC]). Reabsorption was estimated by a nonlinear function parameterized in terms of maximum reabsorbed glucose concentration (Gmax) and PG concentration to reach half maximum transport (Km). Maximum inhibitory effect (Imax) and half maximal inhibitory concentration (IC50) described inhibition of renal glucose absorption. RTG was calculated as the difference between maximum reabsorption (including drug effect) and KM. The model was evaluated via bootstrap and external predictive check of an empagliflozin renal impairment study.

[2] = system: patients with T2DM and CKD stage 3A, 3B and 4; assay: Phase III trial of empagliflozin as add-on to existing therapy in patients with T2DM and CKD stage 3A, 3B and 4; format: in vivo, human; settings: EMPA 25 mg; for AEs consistent with urinary tract infection, patients / AEs consistent with volume depletion, patients / adverse events (AEs) reported, patients: 52 weeks
Protocol: A Phase III trial investigated the efficacy and safety of empagliflozin (EMPA) as add-on to existing therapy for 52 weeks in patients with T2DM and CKD stage 3A, 3B and 4. Patients with CKD stage 3A (eGFR [MDRD equation] ≥45 to <60 ml/min/1.73 m^2; n=180; mean [SD] age 64.5 [8.0] years; mean [SD] BMI 30.5 [5.2] kg/m^2), CKD stage 3B (eGFR ≥30 to <45 ml/min/1.73 m^2; n=194; mean [SD] age 65.2 [9.0] years; mean [SD] BMI 30.0 [5.4] kg/m^2) or CKD stage 4 (eGFR ≥15 to <30 ml/min/1.73 m^2; n=74; mean [SD] age 64.1 [11.1] years; mean [SD] BMI 30.4 [5.6] kg/m^2) received EMPA 25 mg qd or PBO for 52 weeks. In exploratory analyses, we assessed the long-term efficacy and safety of EMPA, including changes from baseline in HbA1c, fasting plasma glucose (FPG), weight and systolic and diastolic blood pressure (SBP and DBP) at week 52 (FIG. 7).

Question: Which “average improvement in the HbA1c value” (the diabetic) does the source give for CN(C)C(=N)N=C(N)N [metformin] here?
Answer: 1.0-1.5%

Question: What does the source list for OC[C@H]1O[C@@H](c2ccc(Cl)c(Cc3ccc(O[C@H]4CCOC4)cc3)c2)[C@H](O)[C@@H](O)[C@@H]1O [empagliflozin, 1-chloro-4-(β-D-glucopyranos-1-yl)-2-[4-((S)-tetrahydrofuran-3-yloxy)-benzyl]benzene]?
Answer: AEs consistent with genital infection, patients ([1]; EMPA 10 mg qd): 6.1%; AEs consistent with urinary tract infection, patients ([1]; EMPA 10 mg qd): 10.2%; Hypoglycemia (plasma glucose ≤70 mg/dL and/or requiring assistance), patients ([1]; EMPA 10 mg qd): 23.5%; adverse events (AEs) reported, patients ([1]; EMPA 10 mg qd, week 24, all patients): 79.6%; AEs consistent with genital infection, patients ([1]; EMPA 25 mg qd): 2.5%; AEs consistent with urinary tract infection, patients ([1]; EMPA 25 mg qd): 9.0%; Hypoglycemia (plasma glucose ≤70 mg/dL and/or requiring assistance), patients ([1]; EMPA 25 mg qd): 22.1%; adverse events (AEs) reported, patients ([1]; EMPA 25 mg qd, week 24, all patients incl. exploratory severe RI group): 75.4%; difference to placebo for the adjusted mean change in HbA1c from baseline ([1]; Week 24, moderate A renal impairment): −0.46%; difference to placebo for the adjusted mean change in HbA1c from baseline ([1]; Week 24, moderate B renal impairment): −0.39%; tolerability ([1]; patients with T2DM and mild or moderate RI): well tolerated; BP ([1]; week 24, further analyses): significant reductions; FPG ([1]; week 24, further analyses): significant reductions; weight ([1]; week 24, further analyses): significant reductions; HbA1c vs PBO ([1]; week 24, mild or moderate RI): significantly reduced; IC50 (renal glucose absorption; Homo sapiens, model parameter estimate, three Phase I/II trials, N=223, read-out: IC50, half maximal inhibitory concentration for renal glucose absorption (95% CI)): 5.28 nM; RTG (renal threshold for glucose) (renal glucose absorption; dose 1 mg): 100.5 mg/dL; RTG (renal threshold for glucose) (renal glucose absorption; dose 5 mg): 43.8 mg/dL; RTG (renal threshold for glucose) (renal glucose absorption; dose 10 mg): 33.1 mg/dL; RTG (renal threshold for glucose) (renal glucose absorption; dose 25 mg): 26.0 mg/dL; Imax, maximum inhibitory effect on renal glucose absorption (95% CI) (renal glucose absorption; model parameter estimate, three Phase I/II trials, N=223): 0.559 (0.545, 0.607); AEs consistent with urinary tract infection, patients ([2]; CKD stage 3A): 16.5%; AEs consistent with volume depletion, patients ([2]; CKD stage 3A): 4.4%; adverse events (AEs) reported, patients ([2]; CKD stage 3A): 86.8%; AEs consistent with urinary tract infection, patients ([2]; CKD stage 3B): 16.7%; AEs consistent with volume depletion, patients ([2]; CKD stage 3B): 3.1%; adverse events (AEs) reported, patients ([2]; CKD stage 3B): 80.2%; AEs consistent with urinary tract infection, patients ([2]; CKD stage 4): 18.9%; AEs consistent with volume depletion, patients ([2]; CKD stage 4): 5.4%; adverse events (AEs) reported, patients ([2]; CKD stage 4): 91.9%; DBP ([2]; week 52, CKD stage 3A): significantly reduced; FPG ([2]; week 52, CKD stage 3A): significantly reduced; HbA1c vs PBO ([2]; week 52, CKD stage 3A): significantly reduced; SBP ([2]; week 52, CKD stage 3A): significantly reduced; weight ([2]; week 52, CKD stage 3A): significantly reduced; FPG ([2]; week 52, CKD stage 3B): significantly reduced; HbA1c vs PBO ([2]; week 52, CKD stage 3B): significantly reduced; weight ([2]; week 52, CKD stage 3B): significantly reduced; BP ([2]; week 52, CKD stage 4): Reductions; FPG ([2]; week 52, CKD stage 4): Reductions; HbA1c ([2]; week 52, CKD stage 4): did not reduce; weight ([2]; week 52, CKD stage 4): Reductions
